Results from ChEMBL document CHEMBL1201862, “PubChem BioAssay data set” (2004).
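Dose response: 5 concentrations. Exposure: 48 h. Format: 96-well plates. Endpoint: linear interpolation; highest concentration if not reached. Abbreviation: GI50, concentration required for 50% inhibition of growth.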 Calls of active or inactive are those of the source. Rule as the data show it: active = GI50 up to about 1.1 µM and inactive = higher.

Experiments:
Assay in all cases: inhibition of tumour cell growth, NCI panel, 48 h
A498 = system: A498
M14 = system: M14
COLO 205 = system: COLO 205
SN12C = system: SN12C
HCC 2998 = system: HCC 2998
RPMI-8226 = system: RPMI-8226
OVCAR-3 = system: OVCAR-3
CAKI-1 = system: CAKI-1
ACHN = system: ACHN
HCT-116 = system: HCT-116
IGROV-1 = system: IGROV-1
CCRF-CEM = system: CCRF-CEM
SF-539 = system: SF-539
UACC-257 = system: UACC-257
HOP-62 = system: HOP-62
NCI/ADR-RES = system: NCI/ADR-RES
PC-3 = system: PC-3
HT-29 = system: HT-29
HOP-92 = system: HOP-92
SR = system: SR

What does the source list for `O=c1cc(-c2ccc(O)cc2)oc2cc(O[C@@H]3O[C@H](CO)[C@@H](O)[C@H](O)[C@H]3O)cc(O)c12` [APIGETRIN]?
GI50 (A498): 67.1 µM (inactive); GI50 (M14): > 100 µM (inactive); GI50 (COLO 205): > 100 µM (inactive); GI50 (SN12C): > 100 µM (inactive); GI50 (HCC 2998): 36.1 µM (inactive); GI50 (RPMI-8226): > 100 µM (inactive); GI50 (OVCAR-3): > 100 µM (inactive); GI50 (CAKI-1): 0.239 µM (active); GI50 (ACHN): 26.2 µM (inactive); GI50 (HCT-116): 33.4 µM (inactive); GI50 (IGROV-1): 57.9 µM (inactive); GI50 (CCRF-CEM): 75.9 µM (inactive); GI50 (SF-539): 48.5 µM (inactive); GI50 (UACC-257): > 100 µM (inactive); GI50 (HOP-62): > 100 µM (inactive); GI50 (NCI/ADR-RES): 42 µM (inactive); GI50 (PC-3): 33.2 µM (inactive); GI50 (HT-29): 53 µM (inactive); GI50 (HOP-92): 83.9 µM (inactive); GI50 (SR): 0.0752 µM (active)
